The text below walks through data of patent US20240368104A1, “Novel Dialkoxynaphtho[2,3-C]Furan-1(3H)-One Derivatives and Pharmaceutical Composition For Preventing or Treating Respiratory Disease or SARS-COV-2 Infection Disease, Comprising Same” (priority 2021, published 2024).

SMILES strings stand for the structures. Read-outs that look alike come from different tables or passages of the source.

Series [1] is described as follows: in vitro. The note with it: African green monkey.
Series [2] deals with SARS-COV-2. The experiment in a line: microbe, parasite or virus in culture. It counts as cell-based. Further details: SI (Selectivity Index, CC50/IC50): unit not given here. The note with it: for SI (Selectivity Index, CC50/IC50): SARS-COV-2, values >50 assumed to be 50; for IC50: read-out: SARS-COV-2 inhibition (IC50).
In series [3] the test system is IL-5 expression in Th2 cells. Put plainly: Inhibition of IL-5 expression in Th2 cells (ELISA). It counts as cell-based, Balb/C mice. The note with it: Splenocyte, read-out: Inhibitory ability against IL-5 expression (%). On the procedure: Specifically, after spleens were collected from Balb/C mice, CD4+ T cells were isolated therefrom and were seeded at 1-2×10^6 per well into a 48-well tissue culture plate coated with anti-CD3 (5 ug/ml) and anti-CD28 (1 ug/ml). At this time, the culture medium was incubated with IL-2 (20 ng/ml), IL-4 (100 ng/ml), anti-IFNγ (10 ug/ml), anti-IL12 (10 ug/ml), and a derivative of 1 nM for two days, transferred to a new tissue culture plate, and further cultured for three days to induce differentiation into Th2 cells. After replacing with a new medium containing anti-IFNγ (10 ug/ml), anti-IL12 (10 ug/ml) and a derivative of 1 nM, polarization of Th2 cells was induced using PMA and A23187. After two days of culture, the cells were centrifuged and the culture medium was taken to perform IL-5 ELISA. IL-5 ELISA was performed according to the test method of the kit manufacturer.

For series [4], the system named is Balb/c mouse asthma model. Put plainly: Balb/c mouse asthma model (ovalbumin), BALF IgE, IL-4, IL-5 and inflammatory cells. It counts as in vivo, Balb/c mice. To be noted: Example 73 10 mg/kg oral, dexamethasone 1 mg/kg intraperitoneal. The procedure:
In detail, five-week-old Balb/c mice were purchased and acclimated for one week, after which the mice were sensitized systemically by intraperitoneal injection with 0.1% ovalbumin (OVA 1 mg/mL, Al(OH)3 20 mg/mL) at 100 μl/mouse on days 0 and 14 from a week after the acclimation. From a week (day 21) after a final systemic sensitization, the compound of Example 73 was orally administered everyday at 10 mg/kg to mice for ten days, and dexamethasone was intraperitoneally administered at 1 mg/kg as a positive control group. In one hour later, 0.2% ovalbumin solution was sprayed with a nebulizer (PARIBoy SX, GmbH, Germany) so as to be inhaled for one hour. In five hours after the final sensitization (day 30), an autopsy was performed, and 1 mL of phosphate buffer solution was flowed through a tracheotomy to collect a bronchoalveolar lavage fluid (BALF). The collected BALF was centrifuged at 3000 rpm for ten minutes, and the supernatant was used to measure bioactive materials (IL-4, IL-5), and pellets were used to measure the number of inflammatory cells. In addition, an IgE concentration in the isolated BALF was measured using IgE enzyme-linked immunosorbent assay (ELISA, Komabiotech), and IL-4 and IL-5 were measured using their respective enzyme-linked immunosorbent assay (ELISA, IL-4: Enzo #ADI-900-043, IL-5: R&D system #M5000).
The results are shown in Table 8 and FIG. 22, and each secretion inhibitory activity was calculated in the same manner as in [Equation 2] of Experimental Example 4.
In addition, the BALF pellets were re-dissolved by adding 0.5 mL of phosphate buffer solution, and then 0.1 mL for each thereof was added to a 96-well plate and centrifuged at 800 rpm for five minutes to attach cells to the bottom (three wells per sample). Then, the cells were stained with Diff Quik staining solution (Sysmex) and the number of cells was measured with […].
The results were shown in FIG. 21, the SPSS program was used for statistical processing, the Levene test was performed for equal-variance test, and the significance test was performed through one-way ANOVA.

For series [5], the system named is SFTS virus (KADGH; NCCP43261). Put plainly: microbe, parasite or virus in culture. It counts as cell-based, severe fever with thrombocytopenia syndrome virus. The note with it: Severe fever with thrombocytopenia syndrome virus, Vero, 24 h, read-out: SFTSV inhibition (IC50, μM).
Setting [6] is: Severe acute respiratory syndrome coronavirus 2, Vero cells, 24 hours infection.
Where [7] appears, read: Th2 cells from mouse splenocytes, compound 1 nM.

By IC50 is commonly meant the concentration at which inhibition is half-maximal. The molecule `COc1cc2cc3c(c(-c4cnc(Nc5ccc(C)c(C)c5)nc4)c2cc1OC)C(=O)OC3` [Example 14, 9-(2-((3,4-dimethylphenyl)amino)pyrimidin-5-yl)-6,7-dimethoxynaphtho[2,3-c]furan-1(3H)-one] gave a CC50 in series [1] greater than 50 µM. Besides, the “SI (Selectivity Index, CC50/IC50)” value in series [2] was 3.31. In series [2] (setting [6]), the IC50 came out at 15.1 µM. Moreover, the inhibition at 0.001 µM in series [3] (setting [7]) came to 58.9%.
`COc1cc2cc3c(c(-c4cnc(N5CCC[C@H]5C(=O)NCc5ccc(C)o5)nc4)c2cc1OC)C(=O)OC3` [Example 41, (S)-1-(5-(6,7-dimethoxy-3-oxo-1,3-dihydronaphtho[2,3-c]furan-4-yl)pyrimidin-2-yl)-N-((5-methylfuran-2-yl)methyl)pyrrolidin-2-carboxamide] registered a CC50 in series [1] greater than 50 µM. Besides, in series [2], the “SI (Selectivity Index, CC50/IC50)” value came to 2.41. Also, the half-maximal inhibitory concentration (IC50) in series [2] (setting [6]) is 15.2 µM. Moreover, the inhibition at 0.001 µM in series [3] (setting [7]) was 66%.
As to `C[C@@H]1C[C@H]2[C@@H]3CCC4=CC(=O)C=C[C@]4(C)[C@@]3(F)[C@@H](O)C[C@]2(C)[C@@]1(O)C(=O)CO` [Dexamethasone, dexamethasone, reference compound], in series [4], the “BALF IL-4 Secretion inhibitory ability %” value is “(102.7%)”, the “BALF IL-5 Secretion inhibitory ability %” value was “(50.0%)” and the “BALF IgE Secretion inhibitory ability %” value was “(93.0%)”. In addition, in series [4] (Mean ± S.D., n = 5, ten days), the “BALF IL-4 pg/ml” value is reported as 32.9 ± 4.534 ^## pg/ml, the “BALF IL-5 pg/ml” value was found to be 15.6 ± 8.07 pg/mL and the “BALF IgE ng/ml” value is 1.3 ± 0.536 ^## ng/ml.
As for `COc1cc2cc3c(c(-c4cnc(Oc5ccc6c(c5)OCO6)nc4)c2cc1OC)C(=O)OC3` [Example 20, 9-(2-(benzo[d][1,3]dioxol-5-yloxy)pyrimidin-5-yl)-6,7-dimethoxynaphtho[2,3-c]furan-1(3H)-one], in series [1], the CC50 is greater than 50 µM. Moreover, the “SI (Selectivity Index, CC50/IC50)” value in series [2] is 1.00. Also, in series [2] (setting [6]), the IC50 was greater than 50 µM. For the same molecule, the inhibition at 0.001 µM in series [3] (setting [7]) worked out at 40.8%.
For the molecule `COc1cc2cc3c(c(N[C@H]4CCc5c(cccc5OC)C4)c2cc1OC)C(=O)OC3` [Example 1, (S)-6,7-dimethoxy-9-((5-methoxy-1,2,3,4-tetrahydronaphthalen-2-yl)amino)naphtho[2,3-c]furan-1(3H)-one], the CC50 in series [1] was greater than 50 µM. The “SI (Selectivity Index, CC50/IC50)” value in series [2] worked out at 1.00. Moreover, in series [2] (setting [6]), the IC50 was greater than 50 µM. Further, the inhibition at 0.001 µM in series [3] (setting [7]) is 61.9%.
In series [1], `CCC(C)Oc1ncc(-c2c3c(cc4cc(OC)c(OC)cc24)COC3=O)cn1` (stereo not drawn) [Example 25, 9-(2-(sec-butoxy)pyrimidin-5-yl)-6,7-dimethoxynaphtho[2,3-c]furan-1(3H)-one] had a CC50 greater than 50 µM. For the same molecule, the “SI (Selectivity Index, CC50/IC50)” value in series [2] was determined as 1.00. Further, the IC50 in series [2] (setting [6]) is greater than 50 µM. Moreover, the inhibition at 0.001 µM in series [3] (setting [7]) is 56.8%.
As for `COc1cc2cc3c(c(-c4cnc(N(C)C(C)C)nc4)c2cc1OC)C(=O)OC3` [Example 23, 9-(2-(isopropyl(methyl)amino)pyrimidin-5-yl)-6,7-dimethoxynaphtho[2,3-c]furan-1(3H)-one], the CC50 in series [1] is greater than 50 µM. Besides, the “SI (Selectivity Index, CC50/IC50)” value in series [2] was found to be 61.34. In addition, the IC50 in series [2] (setting [6]) turned out to be 0.08 µM. In addition, the inhibition at 0.001 µM in series [3] (setting [7]) came out at 68.2%.
In the case of `COc1cc2cc3c(c(-c4ccc5nccnc5c4)c2cc1OC)C(=O)OC3` [Example 40, 6,7-dimethoxy-9-(quinoxalin-6-yl)naphtho[2,3-c]furan-1(3H)-one], in series [1], the CC50 was greater than 50 µM. The “SI (Selectivity Index, CC50/IC50)” value in series [2] is on record as 76.71. In addition, the IC50 in series [2] (setting [6]) came to 0.65 µM. Further, in series [3] (setting [7]), the inhibition at 0.001 µM came out at 65.1%.
Consider `NC(=O)c1nc(F)c[nH]c1=O` [Favipiravir], for which the IC50 in series [5] stood at 278 µM.
Take `COc1cc2cc3c(c(-c4ccc5oc6ccccc6c5c4)c2cc1OC)C(=O)OC3` [Example 43, 9-(dibenzo[b,d]furan-2-yl)-6,7-dimethoxynaphtho[2,3-c]furan-1(3H)-one]: the CC50 in series [1] is greater than 50 µM. Also, the “SI (Selectivity Index, CC50/IC50)” value in series [2] was found to be 1.00. Besides, the IC50 in series [2] (setting [6]) is greater than 50 µM. Besides, the inhibition at 0.001 µM in series [3] (setting [7]) turned out to be 65.9%.
For the molecule `COc1cc2cc3c(c(-c4cnc(N5CCC[C@H]5C(=O)N[C@@H](C)c5ccc(F)cc5)nc4)c2cc1OC)C(=O)OC3` [Example 39, (S)-1-(5-(6,7-dimethoxy-3-oxo-1,3-dihydronaphtho[2,3-c]furan-4-yl)pyrimidin-2-yl)-N—((S)-1-(4-fluorophenyl)ethyl)pyrrolidin-2-carboxamide], in series [1], the CC50 is greater than 50 µM. In series [2], the “SI (Selectivity Index, CC50/IC50)” value came to 1.98. Also, the IC50 in series [2] (setting [6]) came to 13.6 µM. For the same molecule, the inhibition at 0.001 µM in series [3] (setting [7]) worked out at 47.7%.
On the same counts, the results for `COc1cc2cc3c(c(-c4cnc(N[C@H]5CCc6c(cccc6OC)C5)nc4)c2cc1OC)C(=O)OC3` [Example 22, (S)-6,7-dimethoxy-9-(2-((5-methoxy-1,2,3,4-tetrahydronaphthalen-2-yl)amino)pyrimidin-5-yl)naphtho[2,3-c]furan-1(3H)-one] are greater than 50 µM, 10.64, 4.7 µM and 59.9%.
For `COc1cc2cc3c(c(-c4cnc(NCCCn5ccnc5)nc4)c2cc1OC)C(=O)OC3` [Example 16, 9-(2-((3-(1H-imidazol-1-yl)propyl)amino)pyrimidin-5-yl)-6,7-dimethoxynaphtho[2,3-c]furan-1(3H)-one], the CC50 in series [1] is greater than 50 µM. Besides, in series [2], the “SI (Selectivity Index, CC50/IC50)” value came out at 1.6. In addition, the IC50 in series [2] (setting [6]) was found to be 31.2 µM. Further, in series [3] (setting [7]), the inhibition at 0.001 µM came to 70.8%.
Regarding `COc1cc2cc3c(c(-c4cnc(O[C@H]5CN6CCC5CC6)nc4)c2cc1OC)C(=O)OC3` [Example 17, (R)-6,7-dimethoxy-9-(2-(quinuclidin-3-yloxy)pyrimidin-5-yl)naphtho[2,3-c]furan-1(3H)-one], the CC50 in series [1] was greater than 50 µM. In series [2], the “SI (Selectivity Index, CC50/IC50)” value came to 1.59. Further, the IC50 in series [2] (Severe acute respiratory syndrome coronavirus 2, Vero, 24 h) is 31.4 µM. Also, in series [3] (Mus musculus), the inhibition at 0.001 µM was 55.2%.
As for `COc1cc2cc3c(c(-c4cnc5ccccc5c4)c2cc1OC)C(=O)OC3` [Example 46, 6,7-dimethoxy-9-(quinolin-3-yl)naphtho[2,3-c]furan-1(3H)-one], the CC50 in series [1] was greater than 50 µM. The “SI (Selectivity Index, CC50/IC50)” value in series [2] turned out to be 512.00. Besides, in series [2] (setting [6]), the IC50 stood at 0.1 µM. The inhibition at 0.001 µM in series [3] (setting [7]) is 50.4%.
For `COCCN(C)c1ncc(-c2c3c(cc4cc(OC)c(OC)cc24)COC3=O)cn1` [Example 18, 6,7-dimethoxy-9-(2-((2-methoxyethyl)(methyl)amino)pyrimidin-5-yl)naphtho[2,3-c]furan-1(3H)-one], the CC50 in series [1] was greater than 50 µM. The “SI (Selectivity Index, CC50/IC50)” value in series [2] was determined as 99.07. Besides, the IC50 in series [2] (setting [6]) was determined as 0.5 µM. Moreover, the inhibition at 0.001 µM in series [3] (setting [7]) was found to be 72.3%.
